# The source made the active and inactive calls.
# Legend:
# [1] = HEK293 cell cytotoxicity, dose response, cytotoxicity control, plate reader, cherry-picked samples (AID 743446); type: functional, cell-based
# [2] = MC4R antagonists, dose response, counter-screen for LGR2 antagonist project, cell-based, plate reader, cherry pick (AID 743444); type: functional;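 also: transfected HEK 293 cells stimulated with alpha-MSH peptide; potency of inhibitors of the alpha-MSH evoked signal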
# [3] = HepG2 cell cytotoxicity, dose response, cytotoxicity control, plate reader, cherry-pick, antagonist series (AID 743416); type: functional, cell-based
# [4] = LGR2 antagonists, dose response, cell-based, HEK293, CRE-luciferase reporter, cherry pick (AID 743342); type: functional
# [5] = A549 cell cytotoxicity, dose response, cytotoxicity control, plate reader, cherry-pick, antagonist series (AID 743412); type: functional, cell-based
# cells [6] = test: cells
# cells [7] = settings: HEK293
# [8] = Cytotoxicity screening for potential Inhibitors of Bacterial Capsule Biogenesis (4).; type: functional
# [9] = HEK293 cell viability, dose response, counter-screen for EBV LMP1 inhibitor project, dry powder, set 2 (AID 624374); type: functional
# [10] = lymphoblastoid cell cytotoxicity, dose response, cytotoxicity control, plate reader, dry powder, set 2 (AID 624367); type: functional
# HEK293 [11] = test: cells; type: functional, cell-based; settings: Homo sapiens
# [12] = ADAM10 protease inhibitors, dose response, selectivity assay for ADAM17 exosite inhibitor project, biochemical, FRET peptide substrate, recombinant human ADAM10 (AID 743259);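 also: ADAM10 enzyme cleaving a FRET peptide substrate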
# [13] = molecular target: Disintegrin and metalloproteinase domain-containing protein 17 (Homo sapiens, UniProt P78536); test: exosite inhibitors of ADAM17, dose response, biochemical (AID 743260)
# [14] = molecular target: T1, Nuclear receptor subfamily 0 group B member 1 (Homo sapiens, UniProt P51843); test: Luminescence-based cell-based high throughput dose response assay for inhibitors of the orphan nuclear receptor subfamily 0, group B, member 1 (DAX1; NR0B1). [Related pubchem assays (depositor defined):AID504766, AID504790]; type: functional
# T1 sequence (P51843 whole entry): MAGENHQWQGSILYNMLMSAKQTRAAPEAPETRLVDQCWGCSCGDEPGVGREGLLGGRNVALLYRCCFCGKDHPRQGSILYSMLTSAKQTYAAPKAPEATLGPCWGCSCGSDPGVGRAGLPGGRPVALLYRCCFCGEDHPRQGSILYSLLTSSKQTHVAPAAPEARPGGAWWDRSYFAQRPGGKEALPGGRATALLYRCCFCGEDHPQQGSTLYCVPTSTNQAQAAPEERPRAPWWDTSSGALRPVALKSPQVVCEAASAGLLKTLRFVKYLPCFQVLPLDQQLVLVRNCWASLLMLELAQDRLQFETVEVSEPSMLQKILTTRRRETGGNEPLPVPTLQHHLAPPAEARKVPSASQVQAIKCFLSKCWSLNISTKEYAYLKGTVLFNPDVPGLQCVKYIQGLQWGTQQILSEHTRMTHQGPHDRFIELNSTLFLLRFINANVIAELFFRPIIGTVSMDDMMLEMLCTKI
# [15] = MITF: Counter assay: A375 proliferation Measured in Cell-Based System Using Plate Reader - 2084-03_Inhibitor_Dose_DryPowder_Activity_Set8.; type: functional; settings: A-375
# [16] = TRPM1 promoter luciferase reporter signal decrease, dose response, MITF inhibitor project, cell-based, SK-MEL-5, dry powder, set 8 (AID 624430); type: functional
# [17] = MITF Orthogonal Assay: SK-MEL-5 CTG Assay Measured in Cell-Based System Using Plate Reader - 2084-02_Inhibitor_Dose_DryPowder_Activity_Set7.; type: functional
# Vero = test: host cell cytotoxicity of antiviral hits, dose response, cytotoxicity control for West Nile virus antiviral project, secondary assay (AID 1650); type: functional; settings: Chlorocebus sabaeus
# [18] = MDA-MB-231 cell growth inhibition, dose response, cytotoxicity control for RAD54 inhibitor project, CellTiter-Glo luminescence, cherry-pick (AID 651692); type: functional, cell-based
# [19] = molecular target: T2, DNA repair and recombination protein RAD54-like (Homo sapiens, UniProt Q92698); test: inhibitors of human RAD54 branch migration, confirmation, biochemical, fluorescence, cherry-picked samples, dose series (AID 651657); type: functional
# T2 sequence (Q92698 whole entry): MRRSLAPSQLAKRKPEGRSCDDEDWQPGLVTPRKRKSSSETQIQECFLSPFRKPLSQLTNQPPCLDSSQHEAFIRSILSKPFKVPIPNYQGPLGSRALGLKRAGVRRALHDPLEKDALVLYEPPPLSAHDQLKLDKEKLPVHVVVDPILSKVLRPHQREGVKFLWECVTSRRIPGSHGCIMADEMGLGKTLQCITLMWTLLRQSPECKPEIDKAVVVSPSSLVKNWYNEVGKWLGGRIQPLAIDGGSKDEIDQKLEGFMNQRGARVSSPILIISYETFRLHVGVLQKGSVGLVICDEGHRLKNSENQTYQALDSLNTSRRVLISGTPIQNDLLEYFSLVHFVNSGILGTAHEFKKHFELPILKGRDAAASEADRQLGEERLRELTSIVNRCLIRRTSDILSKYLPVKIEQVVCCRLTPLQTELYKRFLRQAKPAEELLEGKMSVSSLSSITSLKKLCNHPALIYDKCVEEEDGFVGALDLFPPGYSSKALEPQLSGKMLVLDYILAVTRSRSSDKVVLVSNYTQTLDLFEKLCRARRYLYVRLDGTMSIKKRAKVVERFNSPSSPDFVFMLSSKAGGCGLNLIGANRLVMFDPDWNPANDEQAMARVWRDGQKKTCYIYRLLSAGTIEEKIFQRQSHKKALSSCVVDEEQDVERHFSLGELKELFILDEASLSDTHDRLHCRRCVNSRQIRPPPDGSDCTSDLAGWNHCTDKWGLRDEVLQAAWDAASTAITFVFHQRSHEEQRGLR
# A549 = test: A549 cell toxicity, dose response, cytotoxicity control, plate reader, cherry-pick samples (AID 687028); type: functional, cell-based; settings: Homo sapiens
# [20] = HEp-2 cell cytotoxicity, dose response, cytotoxicity control for RSV inhibitor project, HTS (AID 2410); type: functional; settings: human respiratory syncytial virus
# [21] = HepG2 cell cytotoxicity, dose response, cytotoxicity control, ATP luminescence, cherry-pick, set 6 (AID 1053125); type: functional, cell-based
# [22] = YAP1 pathway inhibition via CTGF transcript levels, dose response, cell-based, DLD1 colon cancer, RT-qPCR, cherry-pick (AID 1053122); type: functional; settings: Cancer cell lines
# [23] = HepG2 cell cytotoxicity, dose response, cytotoxicity control, cherry-picked samples (AID 1159577); type: functional, cell-based
# [24] = P. falciparum Dd2 growth inhibitors, dose response, SYBR Green, dry powder samples (AID 1159566); type: functional, cell-based;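 also: potency for growth inhibition with lower SYBR green DNA signal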
# [25] = HEK293 Cytotoxicity Assay Measured in Cell-Based System Using Plate Reader - 7071-01_Inhibitor_Dose_CherryPick_Activity_Set2.; type: functional
# [26] = P. falciparum Dd2 growth inhibitors, dose response, SYBR Green, cherry-picked samples (AID 1159567); type: functional, cell-based
# [27] = HepG2 cell cytotoxicity, dose response, cytotoxicity control, plate reader, dry powder samples (AID 1159569); type: functional, cell-based;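 also: inhibitor potency with signal falling toward the positive control level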
# [28] = P. falciparum ATP4 D1247Y mutant growth inhibitors, dose response, NITD609-resistant line, SYBR Green, dry powder (AID 1159571); type: functional, cell-based;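 also: parasites synchronized at ring stage by sorbitol before testing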
# [29] = P. falciparum 3D7-ScDHODH growth inhibitors, dose response, SYBR Green, dry powder samples (AID 1159570); type: functional, cell-based;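 also: parasite growth measured after 72 hours of compound exposure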
# HeLa = test: HeLa cell cytotoxicity, dose response, cytotoxicity control, ATP luminescence, cherry-pick samples (AID 687004); type: functional, cell-based; settings: Homo sapiens
# HEK293 [30] = test: HEK293T cell cytotoxicity, dose response, cytotoxicity control, ATP luminescence, cherry-pick samples (AID 687005); type: functional, cell-based; settings: Homo sapiens;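 also: cells exposed to compound for 48 hours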
# [31] = molecular target: T3, Trace amine-associated receptor 1 (Homo sapiens, UniProt Q96RJ0); test: Counterscreen for agonists of the human trace amine associated receptor 1 (hTAAR1): Fluorescence-based cell-based high throughput dose response assay to identify hTAAR1 agonist that also desensitize TAAR1 receptor response.; type: functional
# cells [32] = type: functional, cell-based
# cells [33] = type: functional, cell-based; remark: listed apart in the source
# [34] = molecular target: T3, Trace amine-associated receptor 1; test: Fluorescence-based cell-based high throughput dose response assay to identify agonists of the human trace amine associated receptor 1 (TAAR1).; type: functional
# Major prion protein = Major prion protein (Homo sapiens, UniProt P04156); type: functional, cell-based
# cells [35] = test: cells; remark: listed apart in the source
# [36] = A375 melanoma cell cytotoxicity, dose response, counter-screen for MITF inhibitor project, CellTiter-Glo luminescence, dry powder, set 2 (AID 624489); type: functional, cell-based; settings: A-375;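 also: actives are compounds lowering A375 viability meaning general cytotoxicity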
# [37] = A375 melanoma cell viability loss, dose response, counter-screen for MITF inhibitor project, CellTiter-Glo luminescence, dry powder, set 4 (AID 624364); type: functional, cell-based; settings: A-375;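 also: A375 melanoma cells are MITF independent so this is a counter screen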
# [38] = control 3'UTR Renilla luciferase suppression, dose response, counter-screen for Shn3 inhibitor project, cell-based, Clone20-Shn3RL, cherry-picked (AID 624133); type: functional
# [39] = reduction of Shn3 3'UTR firefly luciferase signal, dose response, Schnurri-3 inhibitor project, cell-based, Clone20 osteoblasts, cherry-pick, set 2 (AID 720490); type: functional;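 also: actives lower the luminescence signal as inhibitors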
# [40] = Shn3 3'UTR reporter inhibitors, dose response, cell-based, Clone20 osteoblasts, firefly luciferase, cherry-picked (AID 624132); type: functional;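 also: firefly luciferase luminescence from reporter carrying the Shn3 3'UTR in osteoblasts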
# [41] = inhibitors of control Renilla luciferase reporter, dose response, counter-screen for Shn3 3'UTR targeting project, Clone20-Shn3RL cells, dual-Glo, cherry-pick, set 2 (AID 720724); type: functional, cell-based; settings: Dual-Go Shn3RL
# Fatty acid synthase = Fatty acid synthase (Homo sapiens, UniProt P49327); test: FAS thioesterase domain inhibitors, SAR follow-up, biochemical, endpoint fluorescence intensity, powder samples (AID 652164); type: functional
smiles,measurement,setting,value
C[C@H]1CCCCO[C@@H](CN(C)S(=O)(=O)c2ccc(Cl)cc2)[C@@H](C)CN([C@@H](C)CO)C(=O)c2cc(NC(=O)NC3CCCCC3)ccc2O1,AC50,[1],> 52 µM (inactive)
same,AC50,[2],30.1 µM (active)
same,AC50,[3],> 52 µM (inactive)
same,AC50,[4],32.4 µM (active)
same,AC50,[5],20.1 µM (active)
CC(C)OCCCn1c(=N)c(C(N)=S)cc2c(=O)n3ccccc3nc21,AC50,cells [6],0.61 µM (active)
Cc1ccc2c(c1)-c1c(cnn1CC(=O)Nc1ccccc1N1CCN(C)CC1)CO2,AC50,cells [7],47.1 µM (active)
Cc1nc2ccc(C(=O)Nc3ccncc3)cc2s1,CC50,[8],> 300 µM (active)
Cc1noc(C)c1S(=O)(=O)Nc1ccc2c(c1)C(=O)N([C@@H](C)CO)C[C@@H](C)[C@@H](CN(C)Cc1ccc(C(F)(F)F)cc1)OCCCC[C@H](C)O2,AbsAC35,[9],54.05 µM
same,AbsAC35,[10],52.95 µM
COCCOc1ccc(C(F)(F)F)cc1NC(=O)CN1C(=O)NC(C)(c2ccc3c(c2)OCO3)C1=O (stereo unspecified),IC50,HEK293 [11],> 67.5 µM (inactive)
same,IC50,[12],27.7 µM (inactive)
same,IC50,[13],> 69.5 µM (inactive)
same,IC50,[14],> 67.5 µM (inactive)
O=C1C(Nc2ccc(F)cc2)=C(N2CCCC2)C(=O)c2ccccc21,AC50,[15],11.9 µM (active)
same,AC50,[16],0.583 µM (active)
same,AC50,[17],0.625 µM (active)
CN1CCCC1CCNc1ccc2sc3ccccc3c(=O)c2c1 (stereo unspecified),CC50,Vero,21.1 µM (active)
same,AC50,[18],48.8 µM (active)
same,AC50,[19],13.6 µM (active)
same,AC50,A549,20.2 µM (active)
same,CC50,[20],11.5 µM (active)
Cc1cccn2c(=O)c3cc(C#N)/c(=N\C(=O)c4cccs4)n(CC(C)C)c3nc12,AC50,[21],> 52 µM (inactive)
CCc1nc(N2[C@H](CO)[C@@H](c3ccccc3-c3ccc(F)cc3)[C@@H]2C#N)sc1C,AC50,[22],> 26 µM (inactive)
C[C@@H]1CN([C@@H](C)CO)C(=O)c2c(c3ccccc3n2C)-c2ccccc2CO[C@@H]1CN(C)S(=O)(=O)c1ccc(Cl)cc1,AC50,[23],> 39 µM (inactive)
same,AC50,[24],1.97 µM (active)
same,AC50,[25],25.3 µM (active)
same,AC50,[26],2.33 µM (active)
same,AC50,[27],39.2 µM (active)
same,AC50,[28],3.4 µM (active)
same,AC50,[29],3.95 µM (active)
same,AC50,HeLa,49.1 µM (active)
same,AC50,HEK293 [30],25.3 µM (active)
O=C(O)/C=C/C(=O)NCCC1=CCCCC1,IC50,[31],7.65 µM (active)
same,IC50,cells [32],> 29.9 µM (inactive)
same,EC50,cells [33],> 29.9 µM (inactive)
same,EC50,[34],1.39 µM (active)
O=C(O)c1ccccc1C(=O)c1cccc2c(Br)cccc12,IC50,Major prion protein,1.57 µM (active)
same,IC50,cells [35],> 138 µM (inactive)
CN1CCN(C2=C(NC(=O)c3ccccc3)C(=O)c3ccccc3C2=O)CC1,AC50,[36],12.9 µM (active)
same,AC50,[37],17 µM (active)
COC(=O)C1=C(c2ccc(OCc3ccccc3)cc2)C[C@@H]2CC[C@H]1N2C(=O)NCCCCc1ccccc1,AC50,[38],25.6 µM (active)
same,AC50,[39],10.3 µM (active)
same,AC50,[40],2.8 µM (active)
same,AC50,[41],35.9 µM (active)
O=C(Nc1nc(-c2ccc(S(=O)(=O)N3CCOCC3)cc2)cs1)C1CCCC1,IC50,Fatty acid synthase,> 80 µM (inactive)

# Source: ChEMBL document CHEMBL1201862, “PubChem BioAssay data set” (2004)
